Experiment: Ex vitro study: fluorescence intensity over time in 1×PBS at 37° C.
Type: physicochemical
Conditions: 1×PBS buffer pH 7.4 and 5.4, 37° C.
Description: Ex vitro study: In order to observe the stability of PLGA microparticles in blood ex vitro study was done by the presence of fluorescence intensity after treating the Cy5@ZIF-8@PLGA particles in 1×PBS buffer. The experiment was performed at two different pH conditions. One was pH 7.4 which is the normal blood pH and another was pH 5.4 which mimic the extreme pH condition of blood in different disease states. The fluorescence intensity was measured at different time intervals. For that four types of samples were prepared every time. In two Eppendorf tubes PBS buffer of pH 7.4 and 5.4 were taken and fluorescence intensity was measured and found no peaks. PLGA microparticles were dissolved in 1×PBS buffer pH 7.4 and pH 5.4 with 10 mins centrifugation in Beckman ultra-small centrifuge machine at 3225×g. Only the dissolved clear supernatant was taken and kept in a hot room (37° C.). In another two Eppendorf tubes, Cy5 dye was dissolved in 1×PBS buffer pH 7.4 and 5.4 and kept under the same conditions as the PLGA microparticles to validate the change of fluorescence intensity of Cy5 dye at 37° C. (FIGS. 8A-8D).
It is believed that the PLGA microparticles further preserve the Cy5 dye and act as a sustained release protective shell which can enhance the release period of model drug Cy5 at blood pH.

With C[N+]1=C(C=CC=CC=C2N(CCCCCC(=O)O)c3ccc(S(=O)(=O)O)cc3C2(C)C)C(C)(C)c2cc(S(=O)(=O)[O-])ccc21 [Cy5 dye, 3H-Indolium, 2-[5-[1-(5-Carboxypentyl)-1,3-dihydro-3,3-dimethyl-5-sulfo-2H-indol-ylidene]-1,3-pentadien-1-yl]-1-methyl-3,3-dimethyl-5-sulfonate] the “change of fluorescence intensity over time” value was “did not show any regular change of fluorescence intensity over time”.
